Measured values reported in the NIST ThermoML archive (doi:10.1021/je800012v).

Assay: xn = mol fraction of the nth substance listed
Conditions: Liquid

CCCCCl [1-chlorobutane] + CCCCCC
mass density [kg/m3]
Conditions | x1 = 0.1099 | x1 = 0.212 | x1 = 0.2925 | x1 = 0.316 | x1 = 0.405 | x1 = 0.4978 | x1 = 0.5975 | x1 = 0.6869 | x1 = 0.8294 | x1 = 0.9025
283.15 K, 100 kPa | 688.16 | 707.78 | 724.14 | 728.91 | 747.8 | 768.4 | 791.4 | 813.19 | 849.71 | 869.66
283.15 K, 2500 kPa | 690.51 | 710.17 | 726.49 | 731.23 | 750.19 | 770.77 | 793.76 | 815.54 | 852.04 | 871.97
283.15 K, 5000 kPa | 692.85 | 712.52 | 728.83 | 733.62 | 752.56 | 773.13 | 796.11 | 817.89 | 854.38 | 874.31
283.15 K, 10000 kPa | 697.27 | 716.94 | 733.31 | 738.08 | 757.05 | 777.64 | 800.62 | 822.39 | 858.86 | 878.8
283.15 K, 15000 kPa | 701.44 | 721.17 | 737.55 | 742.33 | 761.32 | 781.91 | 804.89 | 826.69 | 863.18 | 883.07
283.15 K, 20000 kPa | 705.42 | 725.18 | 741.57 | 746.36 | 765.38 | 785.99 | 808.98 | 830.8 | 867.28 | 887.19
283.15 K, 25000 kPa | 709.18 | 728.95 | 745.4 | 750.17 | 769.24 | 789.87 | 812.89 | 834.7 | 871.21 | 891.13
283.15 K, 30000 kPa | 712.77 | 732.59 | 749.06 | 753.86 | 772.94 | 793.59 | 816.62 | 838.47 | 875.01 | 894.92
283.15 K, 35000 kPa | 716.2 | 736.03 | 752.55 | 757.33 | 776.47 | 797.15 | 820.23 | 842.08 | 878.63 | 898.57
293.15 K, 100 kPa | 679 | 698.47 | 714.61 | 719.31 | 738.08 | 758.47 | 781.32 | 802.85 | 839.13 | 858.87
293.15 K, 2500 kPa | 681.5 | 701.01 | 717.13 | 721.84 | 740.6 | 761 | 783.84 | 805.38 | 841.63 | 861.35
293.15 K, 5000 kPa | 684.03 | 703.52 | 719.69 | 724.38 | 743.13 | 763.54 | 786.39 | 807.91 | 844.15 | 863.85
293.15 K, 10000 kPa | 688.77 | 708.3 | 724.48 | 729.18 | 747.97 | 768.33 | 791.18 | 812.71 | 848.93 | 868.63
293.15 K, 15000 kPa | 693.23 | 712.77 | 728.99 | 733.71 | 752.5 | 772.88 | 795.72 | 817.27 | 853.49 | 873.18
293.15 K, 20000 kPa | 697.41 | 717.01 | 733.23 | 737.99 | 756.78 | 777.19 | 800.04 | 821.6 | 857.83 | 877.51
293.15 K, 25000 kPa | 701.41 | 721.03 | 737.29 | 742.03 | 760.9 | 781.3 | 804.2 | 825.76 | 861.98 | 881.68
293.15 K, 30000 kPa | 705.17 | 724.84 | 741.13 | 745.88 | 764.76 | 785.2 | 808.12 | 829.7 | 865.95 | 885.66
293.15 K, 35000 kPa | 708.81 | 728.53 | 744.84 | 749.61 | 768.53 | 788.98 | 811.92 | 833.53 | 869.81 | 889.53
298.15 K, 100 kPa | 674.32 | 693.72 | 709.76 | 714.52 | 733.09 | 753.4 | 776.16 | 797.59 | 833.73 | 853.37
298.15 K, 2500 kPa | 676.93 | 696.34 | 712.38 | 717.11 | 735.72 | 756.03 | 778.78 | 800.23 | 836.3 | 855.94
298.15 K, 5000 kPa | 679.56 | 698.96 | 715.02 | 719.75 | 738.37 | 758.67 | 781.41 | 802.86 | 838.91 | 858.53
298.15 K, 10000 kPa | 684.48 | 703.92 | 719.98 | 724.72 | 743.38 | 763.66 | 786.38 | 807.84 | 843.87 | 863.49
298.15 K, 15000 kPa | 689.11 | 708.6 | 724.66 | 729.39 | 748.1 | 768.37 | 791.12 | 812.57 | 848.59 | 868.18
298.15 K, 20000 kPa | 693.45 | 712.95 | 729.06 | 733.8 | 752.52 | 772.82 | 795.57 | 817.04 | 853.07 | 872.66
298.15 K, 25000 kPa | 697.55 | 717.1 | 733.24 | 737.94 | 756.74 | 777.05 | 799.82 | 821.3 | 857.35 | 876.94
298.15 K, 30000 kPa | 701.45 | 721.06 | 737.22 | 741.91 | 760.75 | 781.09 | 803.9 | 825.39 | 861.46 | 881.06
298.15 K, 35000 kPa | 705.16 | 724.8 | 741 | 745.72 | 764.57 | 784.94 | 807.76 | 829.27 | 865.37 | 884.99
303.15 K, 100 kPa | 669.66 | 689.16 | 704.96 | 709.76 | 728.25 | 748.32 | 770.96 | 792.32 | 828.52 | 847.81
303.15 K, 2500 kPa | 672.37 | 691.9 | 707.69 | 712.51 | 730.98 | 751.02 | 773.66 | 795.01 | 831.2 | 850.48
303.15 K, 5000 kPa | 675.06 | 694.62 | 710.41 | 715.21 | 733.71 | 753.76 | 776.4 | 797.74 | 833.88 | 853.16
303.15 K, 10000 kPa | 680.26 | 699.79 | 715.6 | 720.44 | 738.89 | 759.01 | 781.67 | 802.98 | 839.08 | 858.38
303.15 K, 15000 kPa | 685.01 | 704.53 | 720.39 | 725.23 | 743.69 | – | – | – | – | –
